Source: US10370351B2, “Photoinduced electron transfer voltage-sensitive compounds” (The Regents of the University of California, priority 2016, dated 2019)
Converted amounts (≈) assume the structure as drawn.

Assays:
[1] = Solubility of VoltageFluor dyes and sulfofluoresceins in water; type: physicochemical; settings: for solubility at 3 days: water, 20 °C, kinetic from dmso stock, H2O with 0.1% DMSO, read-out: aqueous solubility; for improvement of aqueous solubility by second sulfonate: ds vs ms VF dye, distilled water, 0.1% DMSO, 20 degrees Celsius, UV-Vis
Description: Suspensions of 5 milligrams each of solid mono- and disulfo-dichlorofluoresceins in 5 mL of distilled water were created. Over the course of three days, 5 milligrams of solid material was added at a time, ensuring that no visible particulates were present in the solution prior to addition. At the end of the experiment, the suspension was filtered through filter paper and then through a 0.22-μm polytetrafluoroethylene filter into a scintillation vial. 10 μL of this filtrate was used as a stock solution to determine the concentration of fluorescein present via UV-Vis spectrophotometry and the remainder was lyophilized and the amount of solid resulting was measured using an analytical microbalance. For VF dyes (VF2.1.Cl and VF2.2(OMe).Cl, both ms and ds versions), saturated solutions in distilled water were prepared via dilution from a 100 μM stock in DMSO for a resulting solution containing 0.1% DMSO. The solutions were allowed to sit overnight at 20 degrees Celsius and then filtered through 0.22-μm filters. The resulting filtrates were used as stock solutions to determine the amount of VF present via UV-Vis spectrophotometry.

HEK293T cells [2] = assay: Voltage sensitivity in HEK cells, whole-cell patch clamp with fluorescence imaging; type: cell-based; settings: for ΔF/F (%) voltage sensitivity: per 100 mV, HEK cells, whole-cell voltage clamp, 200 nM VF; for Improvement (%) in voltage sensitivity: relative to corresponding msVF
Description: Functional imaging of VF dyes was performed using a 20× objective paired with image capture from the EMCCD camera at a sampling rate of 0.5 kHz. VF dyes were excited using the 488 nm LED with an intensity of 2.5 W/cm^2. For initial voltage characterization emission was collected with the QUAD filter (430/32, 508/14, 586/30, 708/98 nm) after passing through a quadruple dichroic mirror (432/38, 509/22, 586/40, 654 nm LP).
Recordings were obtained with an Axopatch 200B amplifier (Molecular Devices) at room temperature. The signals were digitized with Digidata 1332A, sampled at 50 kHz and recorded with pCLAMP 10 software (Molecular Devices) on a PC. Fast capacitance was compensated in the on-cell configuration. For all electrophysiology experiments, recordings were only pursued if series resistance in voltage clamp was less than 30 MΩ. For whole-cell, voltage clamp recordings in HEK 293T cells, cells were held at −60 mV and 100 ms hyper- and depolarizing steps applied from −100 to +100 mV in 20 mV increments. For whole-cell, following membrane rupture, resting membrane potential was assessed and recorded at I=0 and monitored during the data acquisition.
Analysis of voltage sensitivity in HEK cells was performed using custom Matlab routines. Briefly, a region of interest (ROI) was selected automatically based on fluorescence intensity and applied as a mask to all image frames. Fluorescence intensity values were calculated at known baseline and voltage step epochs.
To determine the voltage sensitivity of each of the dyes, whole-cell patch clamp electrophysiology was performed on HEK293T cells loaded with 200 nM VF (FIG. 8a-d). Depolarization of the cell membrane in the presence of VF dye results in a large increase of fluorescence, while hyperpolarization results in lower levels of fluorescence (FIG. 8c-d; FIG. 9). As an illustrative comparison, msVF2.2(OMe). […] Cl, at 48% per 100 mV. The disulfoVF2.2(OMe).

[3] = Spectroscopic studies (absorbance, emission, quantum yield); type: physicochemical; settings: phosphate-buffered saline, pH 7.4 with 0.1% Triton X-100
Description: Stock solutions of VF dyes were prepared in DMSO (1.0-10 mM) and diluted with PBS (100 mM Na2HPO4, pH 7.4, 0.1% Triton-X). UV-Vis absorbance and fluorescence spectra were recorded using a Shimadzu 2501 Spectrophotometer (Shimadzu) and a Quantamaster Master 4 L-format scanning spectrofluorometer (Photon Technologies International). The fluorometer is equipped with an LPS-220B 75-W xenon lamp and power supply, A-1010B lamp housing with integrated igniter, switchable 814 photon-counting/analog photomultiplier detection unit, and MD5020 motor driver. Samples were measured in 1-cm path length quartz cuvettes (Starna Cells).

HEK293T cells [4] = assay: Membrane localization after bath loading, fluorescence imaging; type: cell-based; settings: HEK cells
From the text: A total of 9 new dyes were made: 6 new dsVF dyes and 3 new msVF dyes. Both msVF and dsVF dyes display similar excitation and emission profiles to previously reported msVF dyes (Table 1, FIG. 7A-I), and all localized to the plasma membrane when applied to HEK293T cells via bath loading (FIG. 8a-b).

rat hippocampal neurons = assay: Staining and voltage imaging of cultured rat hippocampal neurons; type: cell-based
From the text: Cl, it was expected that disulfoVF2.2(OMe). Cl would be well-suited to observing membrane potential changes in neurons. Cultured rat hippocampal neurons bathed in disulfoVF2.2(OMe). […] Cl was also used to image neuronal activity in midbrain dopaminergic (mDA) neurons derived from cultured human pluripotent stem cells (hPSCs) in culture (FIG. 11b) using differentiation conditions adapted from previously established protocols. mDA neurons stained with dsVF2.2(OMe). […] Functional analysis of human- or patient-derived differentiated neurons in a simple, non-invasive manner enabled by dsVF2.2(OMe). Cl can provide an important diagnostic tool alongside more conventional methods in ascertaining proper differentiation as well as in investigating human disease phenotypes.

hPSC-derived mDA neurons = assay: Voltage imaging of hPSC-derived midbrain dopaminergic (mDA) neurons; type: cell-based, human; settings: mDA neurons stained with 500 nM dye
Description: mDA neurons were derived from H1 human embryonic stem cells (hESCs) using medium conditions as described in Kriks et al., Nature, 480, 547, 2011). On Day 25 of differentiation, cells were harvested from the culture platform and pipetted to generate small 50-100 μm clusters, and seeded on 12 mm glass coverslips coated with 20 μg/ml Laminin (ThermoFischer Scientific). Cells were subsequently matured for 10 days before voltage sensitive imaging.
Functional imaging of mDA cells was performed using a 20× objective paired with image capture from the ORCA-Flash4.0 camera (Hamamatsu) at a sampling rate of 100 Hz. VoltageFluor dye was excited using the 488 nm LED with an intensity of 2.5 W/cm^2. Light was collected with the QUAD filter (430/32, 508/14, 586/30, 708/98 nm) after passing through a quadruple dichroic mirror (432/38, 509/22, 586/40, 654 nm LP). For image analysis, a custom Matlab routine was employed. Briefly, a TIFF stack was imported into Matlab and the intensity values a user-designated block of pixels was extracted as an array. The intensity over time for each block was then baseline corrected by fitting to a 2nd degree polynomial. […]

HEK cells = assay: Determination of photostability in HEK cells; type: cell-based; settings: compared to msVF2.2(OMe).Cl; 1 μM, 488 nm LED
Description: HEK cells were incubated separately with ms- and ds-VF2.1.Cl and VF2.2(OMe). Cl at 1 μM in HBSS at 37 degrees Celsius for 15 minutes. Data were acquired with a W-Plan-Apo 63×/1.0 objective (Zeiss) and the ORCA-Flash4.0 camera (Hamamatsu). Images were exposed for 10 milliseconds each across 50 seconds with a constant illumination of the 488 nm LED (153 W/cm^2). The excitation light was collected with the QUAD filter (430/32, 508/14, 586/30, 708/98 nm) after passing through a quadruple dichroic mirror (432/38, 509/22, 586/40, 654 nm LP). The fluorescence curves were background subtracted and then normalized to the fluorescence intensity at t=0 and averaged across five cells of each dye.

| Molecule | Φf1 (fluorescence quantum yield) [3] | λabs [3] [nm] | λem [3] [nm] | ΔF/F (%) voltage sensitivity (HEK293T cells [2]) [%] | Improvement (%) in voltage sensitivity (HEK293T cells [2]) [%] | other results |
| --- | --- | --- | --- | --- | --- | --- |
| 5-bromo-2′,7′-dichlorodisulfofluorescein [ds-dichlorofluorescein] | – | – | – | – | – | improvement of aqueous solubility ([1]; relative to monosulfo 5, spectroscopically or gravimetrically): 2.3 fold |
| O=c1cc2oc3cc(O)c(Cl)cc3c(-c3c(S(=O)(=O)O)cc(Br)cc3S(=O)(=O)O)c-2cc1Cl [ds-dichlorofluorescein, 5-bromo-2′,7′-dichlorodisulfofluorescein] | – | – | – | – | – | solubility at 3 days [1]: ≤ 940 µM |
| CCN(CC)c1ccc(/C=C/c2ccc(/C=C/c3cc(S(=O)(=O)O)c(-c4c5cc(F)c(=O)cc-5oc5cc(O)c(F)cc45)c(S(=O)(=O)O)c3)cc2)c(OC)c1 [dsVF2.2(OMe).F] | 0.06 | 509 | 529 | 60 | 22 | – |
| CCN(CC)c1ccc(/C=C/c2ccc(/C=C/c3cc(S(=O)(=O)O)c(-c4c5ccc(=O)cc-5oc5cc(O)ccc45)c(S(=O)(=O)O)c3)cc2)c(OC)c1 [dsVF2.2(OMe).H] | 0.11 | 510 | 530 | 57 | 9 | – |
| O=c1cc2oc3cc(O)c(Cl)cc3c(-c3ccc(Br)cc3S(=O)(=O)O)c-2cc1Cl [ms-dichlorofluorescein, 5-bromo-2′,7′-dichlorosulfofluorescein] | – | – | – | – | – | solubility at 3 days [1]: 410 µM (≈ 212 µg/mL) |
| CCN(CC)c1ccc(/C=C/c2ccc(/C=C/c3ccc(-c4c5cc(Cl)c(=O)cc-5oc5cc(O)c(Cl)cc45)c(S(=O)(=O)O)c3)cc2)c(OC)c1 [msVF2.2(OMe).Cl] | 0.06 | 518 | 534 | 53 | – | ΔF/F (%) voltage sensitivity (HEK293T cells [2]; listed as msVF2.2(OMe). Cl): approximately 53% |
| CCN(CC)c1ccc(/C=C/c2ccc(/C=C/c3ccc(-c4c5cc(F)c(=O)cc-5oc5cc(O)c(F)cc45)c(S(=O)(=O)O)c3)cc2)c(OC)c1 [msVF2.2(OMe).F] | 0.06 | 505 | 524 | 49 | – | – |
| CCN(CC)c1ccc(/C=C/c2ccc(/C=C/c3ccc(-c4c5ccc(=O)cc-5oc5cc(O)ccc45)c(S(=O)(=O)O)c3)cc2)c(OC)c1 [msVF2.2(OMe).H] | 0.08 | 508 | 530 | 53 | – | – |

Further lines, with some results ahead:

| Φf1 (fluorescence quantum yield) [3] | λabs [3] [nm] | λem [3] [nm] | Molecule | ΔF/F (%) voltage sensitivity (HEK293T cells [2]) [%] | Improvement (%) in voltage sensitivity (HEK293T cells [2]) [%] | other results |
| --- | --- | --- | --- | --- | --- | --- |
| 0.08 | 520 | 539 | CN(C)c1ccc(/C=C/c2ccc(/C=C/c3cc(S(=O)(=O)O)c(-c4c5cc(Cl)c(=O)cc-5oc5cc(O)c(Cl)cc45)c(S(=O)(=O)O)c3)cc2)cc1 [dsVF2.1.Cl] | 36 | 21 | improvement of aqueous solubility by second sulfonate [1]: 22% |
| 0.13 | 507 | 529 | CN(C)c1ccc(/C=C/c2ccc(/C=C/c3cc(S(=O)(=O)O)c(-c4c5cc(F)c(=O)cc-5oc5cc(O)c(F)cc45)c(S(=O)(=O)O)c3)cc2)cc1 [dsVF2.1.F] | 33 | 25 | – |
| 0.14 | 509 | 540 | CN(C)c1ccc(/C=C/c2ccc(/C=C/c3cc(S(=O)(=O)O)c(-c4c5ccc(=O)cc-5oc5cc(O)ccc45)c(S(=O)(=O)O)c3)cc2)cc1 [dsVF2.1.H] | 20 | 17 | – |
| 0.07 | 520 | 540 | CCN(CC)c1ccc(/C=C/c2ccc(/C=C/c3cc(S(=O)(=O)O)c(-c4c5cc(Cl)c(=O)cc-5oc5cc(O)c(Cl)cc45)c(S(=O)(=O)O)c3)cc2)c(OC)c1 [dsVF2.2(OMe).Cl] | 63 | 19 | ΔF/F (%) voltage sensitivity (HEK293T cells [2]; listed as disulfoVF2.2(OMe). Cl): 63%; ΔF/F (%) voltage sensitivity (HEK293T cells [2]; listed as disulfoVF2.2(OMe).Cl): 63%; ΔF/F (%) voltage sensitivity (HEK293T cells [2]; listed as dsVF2.2(OMe). Cl): approximately 63%; improvement of aqueous solubility by second sulfonate [1]: 55%; membrane localization (HEK293T cells [4]): clear membrane localization; membrane staining of neurons (rat hippocampal neurons; confocal microscopy, 500 nM): bright membrane staining; detection of membrane potential changes (rat hippocampal neurons; rat hippocampal neurons): can be used to detect membrane potential changes in rat hippocampal neurons; imaging of neuronal activity (hPSC-derived mDA neurons): revealed distinct firing patterns; photostability (HEK cells): good photostability |
